According to patent US20120016011A1, “RNA Interference Mediated Inhibition of Connective Tissue Growth Factor (CTGF) Gene Expression Using Short Interfering Nucleic Acid (siNA)” (Merck Sharp & Dohme Corp., priority 2009, published 2012):
[invAb] = inverted abasic unit; m = 2'-O-methyl; r = 2'-OH (RNA); f = 2'-fluoro

Assays:
CTGF mRNA = CTGF mRNA knockdown (Taqman RT-PCR) after siNA transfection of human NHLF cells; type: cell-based; conditions: for % KD Human: 10 nM siNA, 24 hrs, average of 3 experiments, vs non-targeting control; for % KD CTGF mRNA at 10 nM / IC50: mean ± S.D.
Procedure, shortened: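 Normal human lung fibroblasts (5000 cells/well) were transfected 24 h after plating with 10 nM siNA complexed with RNAiMax and harvested 24 h later without a media change. CTGF mRNA was measured by TaqMan RT-qPCR on Cells-to-CT lysates, with β-actin and GAPDH assayed alongside. Knockdown was calculated by comparative Ct (ΔΔCt) against non-targeting control siNA.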

GAPDH mRNA = GAPDH mRNA reduction (normalizer, check for toxicity) in siNA-transfected NHLF cells; type: cell-based; conditions: human NHLF cells, mean ± S.D.
Procedure: NHLF (Normal human lung fibroblasts; Lonza cat# CC-2512): Cells were cultured at 37° C. in the presence of 5% CO2 and grown in Fibroblast Basal Medium (Lonza cat# CC-3132) supplemented with 2% FBS and growth factors (provided with the kit) and 100 μg/mL of streptomycin and 100 U/mL penicillin.
Cells were plated in all wells of a tissue-culture treated, 96-well plate at a final count of 5000 cells/well in […], of the appropriate culture media. The cells were cultured for 24 hours after plating at 37° C. in the presence of 5% CO2.
After 24 hours, complexes containing siNA and RNAiMax were created as follows: A solution of RNAiMax diluted 33-fold in OPTI-MEM was prepared. In parallel, solutions of the siNAs for testing were prepared to a final concentration of 120 nM in OPTI-MEM. After incubation of RNAiMax/OPTI-MEM solution at room temperature for 5 min, an equal volume of the siNA solution and the RNAiMax solution were added together for each of the siNAs.
This solution was incubated at room temperature for 20 minutes. After incubation, 20 uL of the solution was added to each of the relevant wells. The final concentration of siNA in each well was 10 nM and the final volume of RNAiMax in each well was 0.3 ul.
The time of incubation with the RNAiMax-siNA complexes was 24 hours and there was no change in media between transfection and harvesting, unless otherwise indicated.
A series of probes and primers were used to detect the various mRNA transcripts of the genes of β-Actin (human cell line only), and of CTGF and GAPDH in mouse and human cell lines. All Taqman probes and primers for the experiments here-in described were supplied as pre-validated sets by Applied Biosystems, Inc. (see Table 3).
The assays were performed on an ABI 7900 instrument, according to the manufacturer's instructions. A TaqMan Gene Expression Master Mix (provided in the Cells-to-CT™, Applied Biosystems, Cat # 4399002) was used. The PCR reactions were carried out at 50° C. for 2 min, 95° C. for 20 min followed by 40 cycles at 95° C. for 15 secs and 60° C. for 1 min.
Additionally, only normalized data, which reflects the general health of the cell and quality of the RNA extraction, was examined. This was done by looking at the level of two different mRNAs in the treated cells, the first being the target mRNA and the second being the normalizer mRNA. This allowed for elimination of siNAs that might be potentially toxic to cells rather than solely knocking down the gene of interest. This was done by comparing the Ct for GAPDH in each well relative to the Ct for the entire plate.

Substance	% KD Human (CTGF mRNA) [%]	% KD CTGF mRNA at 10 nM (CTGF mRNA) [%]	IC50 (CTGF mRNA) [nM]	% Reduction GAPDH mRNA at 10 nM (GAPDH mRNA) [%]
48055-DC: siNA duplex; sense SEQ ID NO: 75 B cAAGuuAuuuAAAucuGuu TTB; antisense SEQ ID NO: 76 AACAGAuuuAAAuAAcuuGUU (sense CAAGUUAUUUAAAUCUGUUTT; antisense AACAGAUUUAAAUAACUUGUU; sense: DNA at AGT, 2'-fluoro at CU, [invAb] at 5' end, 3' end, backbone not given here; antisense: sugars from the 5' end rrrmmmfffmmmfmmfffmmm, backbone not given here)	88 ± 0	88 ± 0	0.11 ± 0.038	−18 ± 4
48042-DC: siNA duplex; sense SEQ ID NO: 49 B GAcAuuAAcucAuuAGAcu TTB; antisense SEQ ID NO: 50 AGUcuAAuGAGuuAAuGucUU (sense GACAUUAACUCAUUAGACUTT; antisense AGUCUAAUGAGUUAAUGUCUU; sense: DNA at AGT, 2'-fluoro at CU, [invAb] at 5' end, 3' end, backbone not given here; antisense: sugars from the 5' end rrrffmmfmmmffmmfmffmm, backbone not given here)	90 ± 1	90 ± 1	0.095 ± 0.022	−43 ± 32
48048-DC: siNA duplex; sense SEQ ID NO: 61 B GAuAGcAucuuAuAcGAGu TTB; antisense SEQ ID NO: 62 ACUcGuAuAAGAuGcuAucUU (sense GAUAGCAUCUUAUACGAGUTT; antisense ACUCGUAUAAGAUGCUAUCUU; sense: DNA at AGT, 2'-fluoro at CU, [invAb] at 5' end, 3' end, backbone not given here; antisense: sugars from the 5' end rrrfmfmfmmmmfmffmffmm, backbone not given here)	80 ± 3	80 ± 3	0.049 ± 0.016	−2 ± 10
48046-DC: siNA duplex; sense SEQ ID NO: 57 B cAcAGcAccAGAAuGuAuA TTB; antisense SEQ ID NO: 58 UAUAcAuucuGGuGcuGuGUU (sense CACAGCACCAGAAUGUAUATT; antisense UAUACAUUCUGGUGCUGUGUU; sense: DNA at AGT, 2'-fluoro at CU, [invAb] at 5' end, 3' end, backbone not given here; antisense: sugars from the 5' end rrrmfmffffmmfmffmfmmm, backbone not given here)	85 ± 3	85 ± 3	0.031 ± 0.011	−53 ± 14
48047-DC: siNA duplex; sense SEQ ID NO: 59 B cGAGuAAuAuGccuGcuAu TTB; antisense SEQ ID NO: 60 AUAGcAGGcAuAuuAcucGUU (sense CGAGUAAUAUGCCUGCUAUTT; antisense AUAGCAGGCAUAUUACUCGUU; sense: DNA at AGT, 2'-fluoro at CU, [invAb] at 5' end, 3' end, backbone not given here; antisense: sugars from the 5' end rrrmfmmmfmfmffmfffmmm, backbone not given here)	81 ± 3	81 ± 3	0.071 ± 0.03	−5 ± 14
